Measurements as given in the supplement of paper PMC10307832.

Key:
Assay in all cases: relative viability (nuclei count vs DMSO), 5 days (fraction); higher = more cells survive
TGX 221 + Linsitinib = compound: CC1=CN2C(=O)C=C(N=C2C(=C1)C(C)NC3=CC=CC=C3)N4CCOCC4 [TGX 221] + C[C@]1(O)C[C@@H](c2nc(-c3ccc4ccc(-c5ccccc5)nc4c3)c3c(N)nccn32)C1 [Linsitinib] (partner 1 µM)
Summary of the method: (§1)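 After 5 days of treatment, lung cancer cells in 1536-well plates were fixed and stained in a single step (final 0.05% Triton X-100, 1% formaldehyde, 1 ug/ml Hoechst) and their nuclei counted on 4× images. Treatment had been applied by pin tool the day after seeding as one drug alone or as a fixed anchor-drug dose with five library-drug doses (not always all listed) in √10 steps. Relative viability is the nuclei count of treated wells divided by that of vehicle wells, and values are medians of duplicate plates.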

[1] = compound: C1=CC=C(C(=C1)C2=CC=C(C=C2)C3=CSC4=C3C(=C(C(=O)N4)C#N)O)O + NC(=O)Nc1cc(-c2cccc(F)c2)sc1C(=O)N[C@H]1CCCNC1 [AZD7762] (partner 0.2 µM)
Summary of the method: as §1

TGX 221 + Palbociclib = compound: CC1=CN2C(=O)C=C(N=C2C(=C1)C(C)NC3=CC=CC=C3)N4CCOCC4 [TGX 221] + CC(=O)c1c(C)c2cnc(Nc3ccc(N4CCNCC4)cn3)nc2n(C2CCCC2)c1=O [Palbociclib] (partner 0.5 µM)
Summary of the method: as §1

TGX 221 + Tozasertib = compound: CC1=CN2C(=O)C=C(N=C2C(=C1)C(C)NC3=CC=CC=C3)N4CCOCC4 [TGX 221] + Cc1cc(Nc2cc(N3CCN(C)CC3)nc(Sc3ccc(NC(=O)C4CC4)cc3)n2)n[nH]1 [Tozasertib] (partner 0.1 µM)
Summary of the method: as §1

Row | Cell Line | relative viability (TGX 221 + Linsitinib; first compound 0.08 µM) | relative viability (TGX 221 + Linsitinib; first compound 0.253 µM) | relative viability (TGX 221 + Linsitinib; first compound 0.8 µM) | relative viability (TGX 221 + Linsitinib; first compound 2.53 µM) | relative viability (TGX 221 + Linsitinib; first compound 8 µM) | relative viability ([1]; first compound 0.08 µM) | relative viability ([1]; first compound 0.253 µM) | relative viability ([1]; first compound 0.8 µM) | relative viability ([1]; first compound 2.53 µM) | relative viability ([1]; first compound 8 µM) | relative viability (TGX 221 + Palbociclib; first compound 0.253 µM) | relative viability (TGX 221 + Palbociclib; first compound 0.8 µM) | relative viability (TGX 221 + Palbociclib; first compound 2.53 µM) | relative viability (TGX 221 + Palbociclib; first compound 8 µM) | relative viability (TGX 221 + Tozasertib; first compound 0.08 µM) | relative viability (TGX 221 + Tozasertib; first compound 0.253 µM) | relative viability (TGX 221 + Tozasertib; first compound 0.8 µM) | relative viability (TGX 221 + Tozasertib; first compound 2.53 µM) | relative viability (TGX 221 + Tozasertib; first compound 8 µM) | relative viability (TGX 221 + Palbociclib; first compound 0.08 µM)
1 | NCI-H1944 | 1.07 | 1.03 | 1.04 | 0.921 | 0.669 | 0.67 | 0.537 | 0.696 | 0.469 | 0.603 | 0.327 | 0.332 | 0.277 | 0.245 | 0.237 | 0.223 | 0.241 | 0.244 | 0.2 | –
2 | LOU-NH91 | 0.974 | 0.912 | 0.931 | 0.917 | 0.794 | 0.79 | 0.804 | 0.745 | 0.733 | 0.701 | 0.511 | 0.448 | 0.492 | 0.517 | 0.713 | 0.653 | 0.697 | 0.675 | 0.562 | 0.612
3 | NCI-H2347 | 0.931 | 0.972 | 0.936 | 0.885 | 0.786 | 0.692 | 0.79 | 0.758 | 0.694 | 0.739 | 0.427 | 0.465 | 0.391 | 0.415 | 0.514 | 0.418 | 0.538 | 0.422 | 0.33 | 0.423
4 | CAL-12T | 0.803 | 0.72 | 0.758 | 0.513 | 0.626 | 0.671 | 0.653 | 0.571 | 0.615 | 0.648 | 0.556 | 0.467 | 0.326 | 0.0733 | 0.324 | 0.329 | 0.322 | 0.314 | 0.2 | 0.466
5 | RERF-LC-KJ | 0.803 | 0.845 | 0.852 | 0.721 | 0.747 | 0.884 | 1.06 | 0.947 | 0.778 | 0.553 | 0.979 | 1.09 | 0.905 | 0.914 | 0.465 | 0.555 | 0.496 | 0.488 | 0.382 | 1.06
6 | HCC-44 | 0.646 | 0.53 | 0.62 | 0.464 | 0.359 | 1.13 | 1.11 | 1.01 | 1.01 | 1.02 | 1.01 | 1 | 0.933 | 0.991 | – | 0.947 | 1.03 | 0.92 | 0.695 | 1.02
7 | NCI-H650 | 0.732 | 0.885 | 0.779 | 0.772 | 0.713 | 0.911 | 1.04 | 1.17 | 1.02 | 0.817 | 0.294 | 0.307 | 0.32 | 0.273 | 0.665 | 0.639 | 0.665 | 0.712 | 0.596 | 0.303
8 | NCI-H1395 | 1 | 0.865 | 1.04 | 0.598 | 0.665 | – | 0.397 | 0.395 | 0.353 | 0.419 | 0.537 | 0.51 | 0.467 | 0.487 | 0.712 | 0.697 | 0.713 | 0.603 | 0.569 | 0.609
